The values below come from publication PMC9775322, “An Integrated Analysis of Mechanistic Insights into Biomolecular Interactions and Molecular Dynamics of Bio-Inspired Cu(II) and Zn(II) Complexes towards DNA/BSA/SARS-CoV-2 3CL^pro by Molecular Docking-Based Virtual Screening and FRET Detection” (Biomolecules, 2022).

Test [1] has as its system Salmonella enteric serovar typhi. The test is described as follows: Agar disc diffusion antibacterial test. The format is cell-based. The note with it: B; for zone of inhibition at 100 µM: 20 µL of 100 µM on 6 mm disc, Control (DMSO) = 6 mm, read-out: diameter of clear zone inhibition; for Inhibition %: (T–C)/T × 100. On the technique in general: In agar diffusion tests the substance spreads into inoculated agar from a disc or well.

The test system of the next test is Escherichia coli. The test is described as follows: Agar disc diffusion antibacterial test. The note with it: for Inhibition %: A, (-) Escherichia coli, (T–C)/T × 100; for zone of inhibition at 100 µM: Escherichia coli, read-out: diameter of clear zone inhibition.
Test [2] relates to Chromo bacterium violaceum. The test is described as follows: Agar disc diffusion antibacterial test. The note with it: for Inhibition %: C, (-) Chromo bacterium violaceum, (T–C)/T × 100; for zone of inhibition at 100 µM: read-out: diameter of clear zone inhibition.
Another test relates to Pseudomonas aeruginosa. Put plainly: Agar disc diffusion antibacterial test. The following applies: for Inhibition %: D, (-) Pseudomonas aeruginosa, (T–C)/T × 100; for zone of inhibition at 100 µM: Pseudomonas aeruginosa, read-out: diameter of clear zone inhibition.
Another test relates to Shigella flexneri. Put plainly: Agar disc diffusion antibacterial test. The note with it: for Inhibition %: E, (-) Shigella flexneri, (T–C)/T × 100; for zone of inhibition at 100 µM: Shigella flexneri, read-out: diameter of clear zone inhibition.
The next test concerns Staphylococcus Aureus. Put plainly: Agar disc diffusion antibacterial test. The note with it: for Inhibition %: F, (+) Staphylococcus Aureus, (T–C)/T × 100; for zone of inhibition at 100 µM: Staphylococcus aureus, read-out: diameter of clear zone inhibition.
The test system of the next test is Bacillus cereus. Put plainly: Agar disc diffusion antibacterial test. The following applies: for zone of inhibition at 100 µM: Bacillus cereus, read-out: diameter of clear zone inhibition; for Inhibition %: G, (+) Bacillus cereus, (T–C)/T × 100.
The subject of a further test is Aspergillus niger. Put plainly: Agar disc diffusion antifungal test. The note with it: for Inhibition %: H, (T–C)/T × 100; for zone of inhibition at 100 µM: read-out: diameter of clear zone inhibition.
A further test relates to Candida albicans. The test is described as follows: Agar disc diffusion antifungal test. The note with it: for Inhibition %: I, (T–C)/T × 100; for zone of inhibition at 100 µM: read-out: diameter of clear zone inhibition.
The next test concerns Mucor indicus. Put plainly: Agar disc diffusion antifungal test. The note with it: for Inhibition %: J, (T–C)/T × 100; for zone of inhibition at 100 µM: read-out: diameter of clear zone inhibition.
Test [3] can be described thus: DPPH radical scavenging assay. The class given is biochemical. The note with it: 517 nm. Background: The DPPH test is a chemical assay of radical scavenging.
Test [4] can be described thus: Hydroxyl radical scavenging assay. The class given is biochemical. The note with it: 230 nm.
Test [5] is described as follows: Superoxide scavenging assay. The format is biochemical. The following applies: 590 nm.
Test [6] is described as follows: Nitric oxide scavenging assay. The class given is biochemical. The note with it: 546 nm.
Test [7] relates to A549 Human lung cancer cell line. The test is described as follows: MTT cell viability assay. The class given is cell-based. The note with it: 72 h exposure, at least three independent experiments.
Test [8] relates to HepG2 Liver cancer cell line. Put plainly: MTT cell viability assay. The class given is cell-based. The note with it: 72 h exposure, at least three independent experiments. (Tetrazolium assays rely on reduction of a dye to a coloured formazan, in cell work by metabolically active cells.)
Test [9] has as its system MCF-7 Breast cancer cell line. Put plainly: MTT cell viability assay. The class given is cell-based. The following applies: 72 h exposure, at least three independent experiments.
The test system of test [10] is NHDF Normal human dermal fibroblasts cell line. The test is described as follows: MTT cell viability assay. The note with it: 72 h exposure. The format is cell-based.
In a further test the test system is CT-DNA. The test is described as follows: DNA binding affinity by viscometric (hydrodynamic) titration. Also on record: species or system calf. The note with it: for Relative Specific Viscosity (η/η0)^1/3: DNA 100 µM; for Slope of (η/η0)^1/3 vs [Compound]/[DNA]: linear plot, R 0.2–1.0. As to the method:
The hydrodynamic titrations were carried out for all substances along with ethidium bromide (control) at 20, 40, 60, 80, 100 µM concentrations. In the Ostwald viscometer, these substances were also separately treated with the deoxyribonucleic acid solution (100 µM).
2.2.4. Viscometry-based titration for investigation of DNA binding
The Viscometry-based titration measurements were further supportive and delivered data about the binding modes between test compound and DNA base pairs. Nevertheless, it does not deliver definite confirmation for the exact mode of interactions. The experiment performed for all test compounds and ethidium bromide (control) at various concentrations 20, 40, 60, 80, 100 µM and each compound mixed with the CT-DNA solution (100 µM) in the Ostwald viscometer. With an accuracy of 0.01 seconds, a digital stopwatch was used to measure the average flow time. Due to the enhancement of the DNA's overall contour length during the separation of base pairs at intercalation sites, the classical intercalative mode […]
Generally, the compounds may result in less positive/negative or no viscosity change if they bind with DNA base pairs via […]
major or minor grooves [ 26]. […]
compounds via intercalation.

Broadly, the zone of inhibition is the extent of the growth-free halo in a diffusion test. One may read the IC50 as the concentration that gives 50% inhibition.

Consider `NCC[C@H](O)C(=O)N[C@@H]1C[C@H](N)[C@@H](O[C@H]2O[C@H](CN)[C@@H](O)[C@H](O)[C@H]2O)[C@H](O)[C@H]1O[C@H]1O[C@H](CO)[C@@H](O)[C@H](N)[C@H]1O` [Amikacin, reference compound], for which the zone of inhibition at 100 µM in [1] was determined as 22 mm; with Escherichia coli, 22 mm; in test [2], 24 mm; with Pseudomonas aeruginosa, 20 mm; in the test on Shigella flexneri, 20 mm; with Staphylococcus Aureus it was 20 mm. In addition, the zone of inhibition at 100 µM in the test on Bacillus cereus stood at 20 mm. For the same compound, the Inhibition % in test [1] is reported as 73%; with Escherichia coli, 73%; in [2], 75%; in the test on Pseudomonas aeruginosa, 70%; in the test with Shigella flexneri, 70%; in the test with Staphylococcus Aureus, 70%. Also, in the test with Bacillus cereus, the Inhibition % worked out at 70%.

In the case of `C[C@@H]1[C@H](O)[C@@H](C)/C=C/C=C/C=C/C=C/C=C/C=C/C=C/[C@H](O[C@@H]2O[C@H](C)[C@@H](O)[C@H](N)[C@@H]2O)C[C@@H]2O[C@](O)(C[C@@H](O)C[C@@H](O)[C@H](O)CC[C@@H](O)C[C@@H](O)CC(=O)O[C@H]1C)C[C@H](O)[C@H]2C(=O)O` [Amphotericin B, reference compound], the values for the Inhibition % in the test on Aspergillus niger, in the test with Candida albicans and in the test with Mucor indicus were 60%, 65% and 65%, respectively. The zone of inhibition at 100 µM with Aspergillus niger was determined as 15 mm; in the test on Candida albicans, 17 mm; in the test with Mucor indicus, 17 mm.

Take `O=C1O[C@H]([C@@H](O)CO)C(O)=C1O` [Ascorbic acid, ascorbic acid, reference compound]: the “% Inhibition, DPPH” value in test [3] (40 µM) amounted to 41.63%; in [3] (80 µM), 53.74%; in test [3] (120 µM) it was 58.95%; in test [3] (160 µM), 70.86%; in test [3] (200 µM), 82.75%; in [3] (240 µM), 85.65%. In addition, the half-maximal inhibitory concentration (IC50) in [3] amounted to 80 µM; in test [4] (read-out: IC50, hydroxyl radical inhibition), 160 µM; in test [5], 120 µM. The “% Inhibition, hydroxyl radical” value in test [4] (40 µM) is 20.73%; in test [4] (80 µM), 36.46%; in test [4] (120 µM), 47.87%; in test [4] (160 µM), 59.65%; in test [4] (200 µM), 65.64%; in test [4] (240 µM) it was 78.83%. Further, the “% Inhibition, superoxide” value in test [5] (40 µM) worked out at 29.64%; in test [5] (80 µM), 41.72%; in test [5] (120 µM), 55.63%; in test [5] (160 µM), 66.75%; in [5] (200 µM), 72.55%; in test [5] (240 µM), 84.85%. In addition, the “% Inhibition, nitric oxide” value is listed as 28.55% in test [6] (40 µM); 35.75% in [6] (80 µM); 43.65% in [6] (120 µM); 52.68% in test [6] (160 µM); 63.72% in [6] (200 µM); 72.73% in [6] (240 µM).

In the case of `N.N.[Cl][Pt][Cl]` [Cisplatin, cisplatin, reference compound], the IC50 in test [7] is 31.9 ± 1.6 µM; in test [8] it was 22.9 ± 1.1 µM; in test [9], 20.2 ± 1 µM; in [10], 26.9 ± 1.3 µM.

Take `CC[n+]1c(-c2ccccc2)c2cc(N)ccc2c2ccc(N)cc21` [EB, ethidium bromide, reference compound]: the “Relative Specific Viscosity (η/η0)^1/3” value in the test with CT-DNA (R = [Complex]/[DNA] = 0.2) stood at 1.01; in the test on CT-DNA (R = [Complex]/[DNA] = 0.4) it was 1.35; in the test with CT-DNA (R = [Complex]/[DNA] = 0.6), 1.63; in the test on CT-DNA (R = [Complex]/[DNA] = 0.8) it was 1.82; with CT-DNA (R = [Complex]/[DNA] = 1.0), 1.99. Further, the “Slope of (η/η0)^1/3 vs [Compound]/[DNA]” value in the test on CT-DNA was 1.2859; in the test with CT-DNA (listed as (EB)), 1.286.

Turning to `CC(=O)N1CCN(c2ccc(OCC3COC(Cn4ccnc4)(c4ccc(Cl)cc4Cl)O3)cc2)CC1` (stereo not drawn) [Ketoconazole, reference compound], the Inhibition % with Aspergillus niger was 63%; in the test with Candida albicans it was 67%; in the test on Mucor indicus, 67%. Also, the results for the zone of inhibition at 100 µM in the test with Aspergillus niger, in the test with Candida albicans and with Mucor indicus were 16 mm, 18 mm and 18 mm, respectively.

Take `[H]/N=C(/N)N[C@H]1[C@H](O)[C@@H](O)[C@H](O[C@@H]2O[C@@H](C)[C@](O)(C=O)[C@H]2O[C@@H]2O[C@@H](CO)[C@H](O)[C@@H](O)[C@@H]2NC)[C@@H](N/C(N)=N\[H])[C@@H]1O` [Streptomycin, reference compound]: the zone of inhibition at 100 µM in test [1] was found to be 26 mm; with Escherichia coli, 24 mm; in [2], 24 mm; in the test on Pseudomonas aeruginosa, 21 mm; in the test on Shigella flexneri, 25 mm; in the test with Staphylococcus Aureus, 21 mm. In addition, the zone of inhibition at 100 µM with Bacillus cereus worked out at 21 mm. The Inhibition % in [1] is on record as 77%; in the test with Escherichia coli, 75%; in test [2] it was 75%; with Pseudomonas aeruginosa it was 71%; in the test on Shigella flexneri, 76%; in the test on Staphylococcus Aureus it was 71%. The Inhibition % in the test with Bacillus cereus was found to be 71%.
